Reference: patent US8367713B2, “Inhibition and dispersion of bacterial biofilms with imidazole-triazole derivatives” (North Carolina State University, priority 2008, dated 2013)
Where a name gives a salt, the structure may show the parent alone.

Key:
A. baumannii biofilms = assay: Static bacterial biofilm inhibition assay (crystal violet), A. baumannii; assay type: cell-based, Acinetobacter baumannii; conditions: Acinetobacter baumannii, read-out: IC50 of biofilm inhibition, A. baumannii
Method: (§1) Each 2-AIT conjugate was initially screened at 300 μM for their ability to inhibit P. aeruginosa PAO1 and PA14 biofilms, A. baumannii biofilms and B. bronchiseptica Rb50 biofilms using a crystal violet reporter assay (G. A. O'Toole, R. Kolter, Molecular Microbiology 1998, 2, 295-304). […] This is an order of magnitude increase in activity when compared to DHS (J. J. Richards, R. W. Huigens, T. E. Ballard, A. Basso, J. Cavanagh, C. Melander, Chemical Communications 2008, 14, 1698-1700). […] 6 also dispersed pre-formed A. baumanni biofilms with an EC50 of 400 μM (FIG. 2A).
(§2) General Static Bacterial Biofilm Inhibition Assay Procedure for A. baumannii, P. aeruginosa, B. bronchiseptica and S. aureus: Biofilm inhibition assays were performed by taking an overnight culture of bacterial strain and subculturing it at an OD600 of 0.01 into the necessary growth liquid medium (LB for A. baumannii, LBNS for P. aeruginosa, Stainer Scholte medium that was supplemented with […] of 100× nutrient complex for B. bronchiseptica and TSBG for S. aureus) for the strain. The compound being tested was then added at a predetermined concentration and then aliquoted (100 μL) into the wells of a 96-well PVC microtiter plate (Wells not used for samples are filled with 100 μL of de-ionized water). Plates were then wrapped in GLAD Press n′ Seal® and incubated under stationary conditions at 37° C. After 24 hours, the media was discarded from the wells and the plates were washed thoroughly with tap water. Plates were then stained with 100 μL of 0.1% solution of crystal violet (CV) and then incubated at an ambient temperature for 30 minutes. Sample plates were then washed with tap water again and the remaining stain was solubilized with 200 μl, of 95% ethanol. Biofilm inhibition was quantitated by measuring the OD540 for each well by transferring 125 μL of the solubilized CV stain into a polystyrene microtiter dish for analysis.

[1] = tested on: A. baumannii planktonic growth; assay: Planktonic growth curves and colony counts, A. baumannii; assay type: cell-based, Acinetobacter baumannii; conditions: FIGS. 3A, 4A
Method: (§3) The OD600 was recorded at 1, 3, 4, 5, 6 and 24 hours.
(§4) General Colony Count Procedure for A. baumannii, P. aeruginosa, B. bronchiseptica and S. aeureus: Colony counts were performed by incubating either bacterial strain in the presence and absence of the test compound at 37° C. in culture tubes until the sample with the absence of the test compound reached an OD600 of 0.40 from a starting OD600 of 0.01. This typically took three to four hours. Once the OD600 of approximately 0.40 was observed, 100 μL were taken from each culture tube from which serial dilutions were made. Then, 10 μL were removed from each serial dilution and plated out on a square gridded petri-dish followed by 16 hours of incubation at 37° C. period (48 hours for B. bronchiseptica) to grow countable colonies. Viable bacteria were quantified through employment of the track-dilution method (Jett et al., Bio Techniques. 1997, 23, 648-650).

[2] = tested on: pre-formed A. baumannii biofilms; assay: Static bacterial biofilm dispersion assay, A. baumannii; assay type: cell-based; conditions: Acinetobacter baumannii
Method: (§5) General Static Bacterial Biofilm Dispersion Assay Procedure for A. baumannii, P. aeruginosa and S. aureus: Dispersion assays were performed by taking an overnight culture of bacterial strain and subculturing it at an OD600 of 0.01 into the necessary growth liquid medium. The resulting bacterial suspension was aliquoted (100 μL) into the wells of a 96-well PVC microtiter plate. Plates were then wrapped in GLAD Press n′ Seal® followed by an incubation under stationary conditions at an ambient temperature. After 24 hours, the media was discarded from the wells and the plates were washed thoroughly with tap water. Predetermined concentrations of the compound were then made in the same medium used to initially grow the biofilms and then aliquoted (100 μL) into the wells of the 96-well PVC microtiter plate with the established biofilms. Plates were then wrapped in GLAD Press n′ Seal® and incubated under stationary conditions at 37° C. After 24 hours, the media was discarded from the wells and the plates were washed thoroughly with tap water. Plates were then stained with 100 μL of 0.1% solution of crystal violet (CV) and then incubated at room temperature for 30 minutes. Plates were then washed with tap water again and the remaining stain was solubilized with 200 μL of 95% ethanol. Biofilm dispersion was quantitated by measuring the OD540 for each well by transferring 125 μL of the solubilized CV stain into a polystyrene microtiter dish for analysis.

E. coli = assay: Biofilm inhibition at 100 μM, E. coli; assay type: cell-based; conditions: Escherichia coli
Method: Procedure to Determine the Inhibitory Effect of Test Compounds on E. faecium, MRSA, S. epidermidis, PAO1, PA14, E. Coli and MDRAB Biofilm Formation: Inhibition assays were performed by taking an overnight culture of bacterial strain and subculturing it at an OD600 of 0.01 into the necessary media (brain heart infusion for E. faecium, tryptic soy broth with a 0.5% glucose supplement (TSBG) for MRSA, Luria-Bertani (LB) media for MDRAB, Luria-Bertani media without NaCl (LBNS) for PAO1 and PA14, Luria-Bertani (LB) media for E. coli and tryptic soy broth with a 0.5% glucose supplement and a 3.0% NaCl supplement (TGN) for S. epidermidis. Stock solutions of predetermined concentrations of the test compound were then made in the necessary media. These stock solutions were aliquoted (100 μL) into the wells of the 96-well PVC microtiter plate. Sample plates were then wrapped in GLAD Press n′ Seal® followed by an incubation under stationary conditions for 24 h at 37° C. After incubation, the media was discarded from the wells and the plates were washed thoroughly with water. Plates were then stained with 100 μL of 0.1% solution of crystal violet (CV) and then incubated at ambient temperature for 30 min. […] Biofilm inhibition was quantitated by measuring the OD540 of each well in which a negative control lane wherein no biofilm was formed served as a background and was subtracted out. […]

MRSA = assay: Biofilm inhibition at 100 μM, MRSA; assay type: cell-based; conditions: Staphylococcus aureus, read-out: MRSA % Inhibition
Method: Procedure to Determine the Inhibitory Effect of Test Compounds on E. faecium, MRSA, S. epidermidis, PAO1, PA14, E. Coli and MDRAB Biofilm Formation: Inhibition assays were performed by taking an overnight culture of bacterial strain and subculturing it at an OD600 of 0.01 into the necessary media (brain heart infusion for E. faecium, tryptic soy broth with a 0.5% glucose supplement (TSBG) for MRSA, Luria-Bertani (LB) media for MDRAB, Luria-Bertani media without NaCl (LBNS) for PAO1 and PA14, Luria-Bertani (LB) media for E. coli and tryptic soy broth with a 0.5% glucose supplement and a 3.0% NaCl supplement (TGN) for S. epidermidis. Stock solutions of predetermined concentrations of the test compound were then made in the necessary media. These stock solutions were aliquoted (100 μL) into the wells of the 96-well PVC microtiter plate. Sample plates were then wrapped in GLAD Press n′ Seal® followed by an incubation under stationary conditions for 24 h at 37° C. After incubation, the media was discarded from the wells and the plates were washed thoroughly with water. Plates were then stained with 100 μL of 0.1% solution of crystal violet (CV) and then incubated at ambient temperature for 30 min. Plates were washed with water again and the remaining stain was solubilized with 200 μL of 95% ethanol. A sample of 125 μL of solubilized CV stain from each well was transferred to the corresponding wells of a polystyrene microtiter dish. Biofilm inhibition was quantitated by measuring the OD540 of each well in which a negative control lane wherein no biofilm was formed served as a background and was subtracted out.
Biofilm inhibition has been tested for the following compounds, each of which was tested at a concentration of 100 μM.

[3] = tested on: P. aeruginosa PA14 biofilms; assay: Static bacterial biofilm inhibition assay (crystal violet), PA14; assay type: cell-based; conditions: Pseudomonas aeruginosa; P. aeruginosa PA14
Method: as §1, §2

[4] = tested on: pre-formed B. bronchiseptica Rb50 biofilms; assay: Static bacterial biofilm dispersion assay, Rb50; assay type: cell-based; conditions: Bordetella bronchiseptica
Method: as §5
General Static Bacterial Biofilm Dispersion Assay Procedure for B. bronchiseptica: This procedure is identical to the general dispersion procedure described above except that initial biofilm formation in the absence of the test compound was carried out at 37° C.

[5] = tested on: A. baumannii, PAO1, PA14, Rb50, S. aureus (each bacterial strain); assay: Planktonic growth curves and colony counts, each bacterial strain; assay type: cell-based; conditions: each bacterial strain grown in the presence of compound
Method: as §3, §4

[6] = tested on: pre-formed P. aeruginosa PA14 biofilms; assay: Static bacterial biofilm dispersion assay, PA14; assay type: cell-based; conditions: Pseudomonas aeruginosa
Method: as §5

[7] = tested on: P. aeruginosa PAO1 biofilms; assay: Static bacterial biofilm inhibition assay (crystal violet), PAO1; assay type: cell-based; conditions: Pseudomonas aeruginosa
Method: as §1, §2

[8] = tested on: Staphylococcus aureus biofilm; assay: Static bacterial biofilm inhibition assay (crystal violet), S. aureus; assay type: cell-based
Method: as §2

[9] = tested on: B. bronchiseptica Rb50 biofilms; assay: Static bacterial biofilm inhibition assay (crystal violet), Rb50; assay type: cell-based; conditions: Bordetella bronchiseptica, RB50BIOFILMS
Method: as §1, §2

[10] = tested on: pre-formed P. aeruginosa PAO1 biofilms; assay: Static bacterial biofilm dispersion assay, PAO1; assay type: cell-based; conditions: Pseudomonas aeruginosa
Method: as §5

[11] = tested on: pre-formed S. aureus biofilms; assay: Static bacterial biofilm dispersion assay, S. aureus; assay type: cell-based; conditions: Staphylococcus aureus
Method: as §5

Question: Which results are given for `C/C(=C\c1ccccc1)Cn1cc(CCCc2c[nH]c(N)n2)nn1` [Compound 6, 5-{3-[1-(2-Methyl-3-phenyl-allyl)-1H-[1,2,3]triazol-4-yl]-propyl}-1H-imidazol-2-ylamine hydrochloride]?
Answer: IC50 (A. baumannii biofilms): 12 µM; effect on planktonic growth (growth curves and colony counts) [1]: no effect on planktonic growth; EC50 [2]: 400 µM

Question: Which inhibition at 100 µM (E. coli) does the source give for `CCCCCCCCCCCCCCNC(=O)Cn1cc(CCCc2c[nH]c(N)n2)nn1` [2-{4-[3-(2-amino-1H-imidazol-4-yl)-propyl]-[1,2,3]triazol-1-yl}-N-tetradecyl-acetamide hydrochloride] here?
Answer: 35.6 ± 0.6%

Question: And the inhibition at 100 µM (MRSA)?
Answer: 90.8 ± 8%

Question: How did the IC50 (A. baumannii biofilms) turn out when `C/C(=C\c1ccccc1)Cn1cc(CCCCc2cnc(N)[nH]2)nn1` [Compound 10, 4-{4-[1-(2-Methyl-3-phenyl-allyl)-1H-[1,2,3]triazol-4-yl]-butyl}-1H-imidazol-2-ylamine] was run?
Answer: 2.8 µM

Question: What about the IC50 [3] of the same compound?
Answer: 4 µM

Question: And the EC50 [4]?
Answer: 59 µM

Question: And the “bactericidal / microbicidal activity (colony counts and growth curves)” value [5]?
Answer: not due to bactericidal activity

Question: And the EC50 [6]?
Answer: 35 µM

Question: And the IC50 [7]?
Answer: 15 µM

Question: What about the IC50 [8] of the same compound?
Answer: 7 µM

Question: And the IC50 [9]?
Answer: 23 µM

Question: And the EC50 [2]?
Answer: 210 µM

Question: And the EC50 [10]?
Answer: 81 µM

Question: And the EC50 [11]?
Answer: 16 µM

Question: Which inhibition at 100 µM (E. coli) does the source give for `CCCCCCCCCCNC(=O)Cn1cc(CCCc2c[nH]c(N)n2)nn1` [2-{4-[3-(2-amino-1H-imidazol-4-yl)-propyl]-[1,2,3]triazol-1-yl}-N-decyl-acetamide hydrochloride] here?
Answer: 62.7 ± 0.4%

Question: What about the inhibition at 100 µM (MRSA) of the same compound?
Answer: 99 ± 1%
